# Legend:
# [1] = In vitro activities of purified 6-gingerol compared with the crude ginger extract; settings: 6-gingerol purified to greater than 95%
# Source text: The ginger root is also a source of multiple biologically active gingerol compounds, including 6-gingerol, 8-gingerol, 10-gingerol, 6-paradol, 6-shagoal and cassumunin. 6-gingerol is the most abundant analogue in the extract used here, and represents approximately 32% of the total extract. […] In addition, synthetic curcuminoids and synthetic gingerols are also available. One goal is to have a preparation that is inexpensive to prepare so that individuals at risk for non-healing skin ulcers can utilize it on a long-term basis as a wound preventative.
# [2] = tested on: skin of healthy hairless rats; experiment: Topical treatment of healthy hairless rats: gross appearance and irritation of the skin; assay type: in vivo, rat; settings: topical once daily for 14 days, 10% curcumin and 3% ginger extract alone and in combination
# Procedure: The botanicals were dissolved in a vehicle (70% ethanol and 30% propylene glycol) at 10.0% for curcumin and 3% for the ginger extract. The concentrations chosen for the two botanicals were based on results from preliminary in vitro studies and in vivo studies with healthy hairless rats.
# Based on in vitro experiments in which a wide range of concentrations of both curcumin and the ginger extract were tested, healthy hairless rats were treated topically once daily for 14 days with solutions containing 10% curcumin and 3% ginger extract, alone and in combination. Control rats were treated with vehicle alone. Animals were monitored closely during the treatment period of any visible changes in gross appearance of the skin. […] At the end of the treatment period, skin from the treated site of each animal was obtained. The skin was incubated in organ culture for 3 days.
# [3] = tested on: type I collagen; experiment: Soluble type I collagen (Western blot) in organ culture fluid of skin from topically treated healthy hairless rats; assay type: in vivo, rat; settings: 10% curcumin / 3% ginger extract topical, skin in organ culture 3 days, compared to control skin
# Procedure: (§1) Wounding was performed under sterile conditions in a laminar flow hood. Wound size was determined daily by measuring the X-axis and Y-axis of the scabbed wound and calculating the area of the remaining scab. At the time of wound closure, animals were sacrificed and duplicate 6 mm skin punches were collected from wounded and healed skin. One biopsy was fixed in 10% buffered formalin and used for histological analysis. The other biopsy was put in organ culture for 3 days. Briefly, the skin was cut into pieces of approximately 2 mm on a side, and four-five such pieces were incubated for 3 days in 0.5 mL of a culture medium consisting of growth factor-free, serum-free, Keratinocyte Basal Medium (KBM) (Lonza, Walkersville, Md.). Before use, the culture medium was supplemented with Ca^2+ to a final concentration of 1.4 mM. At the end of the 3-day incubation period, the organ culture fluid was collected and assayed for soluble type I collagen by western blotting and MMP-2 and -9 gelatin zymography (see below).
# [4] = tested on: MMP-9; experiment: MMP-9 (gelatin zymography) in organ culture fluid of skin from topically treated healthy hairless rats; assay type: in vivo, rat; settings: 10% curcumin / 3% ginger extract topical, skin in organ culture 3 days, compared to control skin
# Procedure: as §1
# (§2) Analysis of Metalloproteinases: MMP-2 and MMP-9: Gelatin-embedded enzymography (zymography) was used to assess levels of latent and active MMP-2 and MMP-9 in organ culture fluids. SDS-PAGE gels were prepared with the incorporation of gelatin (1 mg/mL) at the time of casting.
# [5] = tested on: MMP-2; experiment: MMP-2 (gelatin zymography) in organ culture fluid of skin from topically treated healthy hairless rats; assay type: in vivo, rat; settings: 10% curcumin / 3% ginger extract topical, skin in organ culture 3 days, compared to control skin
# Procedure: as §1, §2
# [6] = tested on: abrasion wounds in skin of corticosteroid-treated hairless rats; experiment: Abrasion wound healing in corticosteroid-treated hairless rats; assay type: in vivo, rat; settings: 21 days pretreatment, then 15 days with Temovate; 10% curcumin, 3% ginger extract; compared to Temovate plus vehicle alone
# Procedure: Rat Model: Hairless rats were treated for 21 days topically over the back and flank with 500 μL of solutions containing 10% curcumin, 3% ginger extract or the combination of the two. Vehicle alone served as control. During the treatment phase, animals were examined daily for changes in the gross appearance of the skin. After the initial 21-day pretreatment period, rats were treated with Temovate® (clobetasol propionate) cream along with the botanicals for an additional 15 day period. Temovate® (0.05% solution of clobetasol propionate in cream base) was obtained from Glaxo Smith Kline (Philadelphia, Pa.). Temovate® was applied in the morning and botanicals were applied in the evening. At the end of the treatment period, abrasion wounding was performed. […] A pre-measured circular area, approximately 6 cm in diameter, was scrubbed with a stiff-nylon bristle brush lightly wetted with acetone and concomitantly abraded with a piece of course sanding sponge. […]
# Wounding was performed under sterile conditions in a laminar flow hood. Wound size was determined daily by measuring the X-axis and Y-axis of the scabbed wound and calculating the area of the remaining scab. […]
# Statistical Analysis: Data were analyzed using one-way analysis of variance (ANOVA) followed by the Bonferroni posttest for selected pairs (GraphPad Prism version 4.00 for Windows, GraphPad Software, San Diego, Calif.). […]
# [7] = tested on: type I collagen; experiment: Soluble type I collagen (Western blot) in organ culture fluid of healed wound skin, Temovate rat model; assay type: in vivo
# Procedure: Wounding was performed under sterile conditions in a laminar flow hood. Wound size was determined daily by measuring the X-axis and Y-axis of the scabbed wound and calculating the area of the remaining scab. At the time of wound closure, animals were sacrificed and duplicate 6 mm skin punches were collected from wounded and healed skin. One biopsy was fixed in 10% buffered formalin and used for histological analysis. The other biopsy was put in organ culture for 3 days. […]
# Analysis of Type I Collagen: Organ culture fluids were assayed for type I collagen by Western blot analysis. Briefly, organ culture fluids representing an equal quantity of protein were resolved using 8% SDS-PAGE under non-reducing conditions and transferred to nitrocellulose membranes. […] The membranes were then washed with TTBS and bound antibody was detected using the Phototope-HRP western detection kit (Cell Signaling Technologies, Inc., Danvers, Mass.). Images were scanned, digitized, and quantified using NIH image analysis software.
# At the time of wound closure, skin from the center of the initial wound (most recently healed skin) was obtained and incubated in organ culture for three days. Organ culture fluids were collected at the end of the incubation period and analyzed for type I collagen and MMP-2/MMP-9. […]
# [8] = tested on: MMP-2; experiment: MMP-2 (gelatin zymography) in organ culture fluid of healed wound skin, Temovate rat model; assay type: in vivo; settings: botanical treatment of Temovate-treated rats
# Procedure: as §1, with “At the end of the 3-day incubation period, the organ culture fluid was collected and assayed for soluble type I collagen by western blotting and MMP-2 and -9 gelatin zymography (see below).” left out
# (§3) Analysis of Metalloproteinases: MMP-2 and MMP-9: Gelatin-embedded enzymography (zymography) was used to assess levels of latent and active MMP-2 and MMP-9 in organ culture fluids. […] After electrophoresis under non-reducing conditions to separate proteins and overnight incubation to allow for substrate digestion, zones of hydrolysis were identified as “holes” in the stained gels and quantified. Values for latent and active MMPs-2 and -9 bands were obtained following digitization and quantification. […]
# [9] = tested on: MMP-9; experiment: MMP-9 (gelatin zymography) in organ culture fluid of healed wound skin, Temovate rat model; assay type: in vivo; settings: botanical treatment of Temovate-treated rats
# Procedure: as §1, with “At the end of the 3-day incubation period, the organ culture fluid was collected and assayed for soluble type I collagen by western blotting and MMP-2 and -9 gelatin zymography (see below).” left out
# as §3
# [10] = tested on: MMP-1; experiment: MMP-1 levels in human skin organ culture fluid; assay type: cell-based; settings: increasing amounts of curcumin added to 1 μg per mL ginger extract
# Procedure: Human skin was incubated in organ culture under control conditions (Ca^2+-supplemented KBM culture medium) or in the same culture medium with 1 μg per mL ginger extract. Increasing amounts of curcumin were added. […] Human skin was incubated in organ culture under control conditions (Ca^2+-supplemented KBM culture medium) or in the same culture medium with 1 μg per mL ginger extract. Increasing amounts of curcumin were added.
# [11] = tested on: MMP-1; experiment: MMP-1 levels in human dermal fibroblast culture fluid; assay type: cell-based; settings: increasing amounts of curcumin added to 1 μg per mL ginger extract
# Procedure: Fibroblasts were incubated under control conditions (Ca^2+-supplemented KBM culture medium) or in the same culture medium supplemented with 1 μg per mL ginger extract. Increasing amounts of curcumin (X-axis) were added. […] Fibroblasts were incubated under control conditions (Ca^2+—supplemented KBM culture medium) or in the same culture medium supplemented with 1 μg per mL ginger extract. Increasing amounts of curcumin were added.
# [12] = tested on: epidermal keratinocytes; experiment: Epidermal keratinocyte proliferation
# Source text: There are several surprising and unexpected ways in which the combination of curcumin and 6-gingerol functions. First, these compounds promote collagen building in combination. On one hand, the ginger compound serves to raise the level of collagen-degrading enzymes, such as matrix metalloproteinases (MMPs), as one of its functions. On the other hand, the curcumin compound suppresses the MMP elevation stimulated by the ginger compound. Second, the combination promotes vascularization. During wound healing there is the need for new vascularization. However, new vessel growth needs to halt at some point and some vessels need to regress at a time when the wounded skin is fully healed. The ginger compound stimulates new vessel formation and the combination of curcumin and ginger extract result in a reduction in the number of capillaries in the skin at the end of the wound healing. This allows the skin to return to quiescence. Third, the combination promotes epidermal proliferation. Skin irritation is intimately associated with epidermal hyperplasia. The ginger compound stimulates epidermal keratinocyte proliferation while the curcumin compound suppresses ginger extract-induced keratinocyte growth. This may be the underlying factor responsible for the absence of irritation by the combination, for example, as compared to irritation observed with retinoid therapy. […]
Compound,in vitro activities compared with the crude extract [1],skin irritation [2],soluble type I collagen in organ culture fluid [3],MMP-9 in organ culture fluid [4],MMP-2 in organ culture fluid [5],wound closure (percent of wound healed) [6],"type I collagen in organ culture fluid ([7]; botanicals prior to and during Temovate treatment, compared to rats treated with Temovate and vehicle)","type I collagen in organ culture fluid ([7]; treatment along with Temovate, compared to control culture fluids from rats not exposed to Temovate)",MMP-2 level in organ culture fluid [8],MMP-9 level in organ culture fluid [9],ginger extract-induced MMP-1 expression in human skin organ culture fluid [10],ginger extract-induced MMP-1 expression in fibroblast culture fluid [11],ginger extract-induced keratinocyte growth [12]
"CCCCCC(O)CC(=O)CCc1ccc(OC)c(O)c1 (stereo not shown) [6-gingerol, 5-hydroxy-1-(3-hydroxy-4-methoxyphenyl)decan-3-one]",same in vitro activities as the crude extract itself,–,–,–,–,–,–,–,–,–,–,–,–
"COc1cc(/C=C/C(=O)CC(=O)/C=C/c2ccc(O)c(OC)c2)ccc1O [curcumin, (1E,6E)-1,7-bis(4-hydroxy-3-methoxyphenyl)hepta-1,6-diene-3,5-dione]",–,No irritation,increased,decreased,decrease,improved,elevated,higher,reduced,reduced,inhibited,inhibited,suppresses

# From patent US20100105644A1, “BOTANICAL COMPOSITION FOR ENHANCED SKIN REPAIR AND USES THEREOF” (The Regents of the University of Michigan, priority 2008, published 2010)
